Experimental data as given in article PMC3270411 (Chemistry & biology, 2012).

What was measured:
Assay in all cases: KiNativ cellular kinase profiling
Assay type in all cases: cell-based
JNK1,JNK2,JNK3 = conditions: A375 cells, 1 μM, 3 hours; JNK1,JNK2,JNK3, labeling site Lys2
GSK3B = GSK3B (Homo sapiens, UniProt P49841); conditions: for inhibition at 1 µM: A-375, read-out: Percent inhibition of kinase labeling by ATP-biotin; for Percent inhibition of kinase labeling by ATP-biotin: A375 cells, 1 μM, 3 hours, GSK3B, labeling site Lys2
PFTAIRE1 = PFTAIRE1 (Homo sapiens, UniProt O94921); conditions: for inhibition at 1 µM: A-375, read-out: Percent inhibition of kinase labeling by ATP-biotin; for Percent inhibition of kinase labeling by ATP-biotin: A375 cells, 1 μM, 3 hours, PFTAIRE1, labeling site Lys1
CDK9 = CDK9 (Homo sapiens, UniProt P50750); conditions: for inhibition at 1 µM: A-375, read-out: Percent inhibition of kinase labeling by ATP-biotin; for Percent inhibition of kinase labeling by ATP-biotin: A375 cells, 1 μM, 3 hours, CDK9, labeling site Lys2
ROCK1 = ROCK1 (Homo sapiens, UniProt Q13464); conditions: for inhibition at 1 µM: A-375, read-out: Percent inhibition of kinase labeling by ATP-biotin; for Percent inhibition of kinase labeling by ATP-biotin: A375 cells, 1 μM, 3 hours, ROCK1, labeling site Other
ITPK1 = target: T1, ITPK1 (Homo sapiens, UniProt Q13572); conditions: for inhibition at 1 µM: A-375, read-out: Percent inhibition of kinase labeling by ATP-biotin; for Percent inhibition of kinase labeling by ATP-biotin: A375 cells, 1 μM, 3 hours, ITPK1, labeling site ATP
T1 sequence (Q13572 1-414): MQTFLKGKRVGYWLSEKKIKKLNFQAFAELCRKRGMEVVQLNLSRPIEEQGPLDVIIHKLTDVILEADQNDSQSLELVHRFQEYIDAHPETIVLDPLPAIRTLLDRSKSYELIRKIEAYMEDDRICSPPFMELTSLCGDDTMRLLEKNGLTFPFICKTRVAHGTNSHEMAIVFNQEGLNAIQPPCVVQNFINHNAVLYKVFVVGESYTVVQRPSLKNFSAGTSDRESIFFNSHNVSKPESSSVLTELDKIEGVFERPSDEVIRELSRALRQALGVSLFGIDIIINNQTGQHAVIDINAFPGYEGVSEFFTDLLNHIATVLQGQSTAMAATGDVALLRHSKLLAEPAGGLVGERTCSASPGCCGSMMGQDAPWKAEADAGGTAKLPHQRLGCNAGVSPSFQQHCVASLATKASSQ

MARK2 = MARK2 (Homo sapiens, UniProt Q7KZI7); conditions: for inhibition at 1 µM: A-375, read-out: Percent inhibition of kinase labeling by ATP-biotin; for Percent inhibition of kinase labeling by ATP-biotin: A375 cells, 1 μM, 3 hours, MARK2, labeling site Lys1
IKKb = target: T2, IKKb (Homo sapiens, UniProt O14920); conditions: for inhibition at 1 µM: A-375, read-out: Percent inhibition of kinase labeling by ATP-biotin; for Percent inhibition of kinase labeling by ATP-biotin: A375 cells, 1 μM, 3 hours, IKKb, labeling site Lys2
T2 sequence (O14920 1-756): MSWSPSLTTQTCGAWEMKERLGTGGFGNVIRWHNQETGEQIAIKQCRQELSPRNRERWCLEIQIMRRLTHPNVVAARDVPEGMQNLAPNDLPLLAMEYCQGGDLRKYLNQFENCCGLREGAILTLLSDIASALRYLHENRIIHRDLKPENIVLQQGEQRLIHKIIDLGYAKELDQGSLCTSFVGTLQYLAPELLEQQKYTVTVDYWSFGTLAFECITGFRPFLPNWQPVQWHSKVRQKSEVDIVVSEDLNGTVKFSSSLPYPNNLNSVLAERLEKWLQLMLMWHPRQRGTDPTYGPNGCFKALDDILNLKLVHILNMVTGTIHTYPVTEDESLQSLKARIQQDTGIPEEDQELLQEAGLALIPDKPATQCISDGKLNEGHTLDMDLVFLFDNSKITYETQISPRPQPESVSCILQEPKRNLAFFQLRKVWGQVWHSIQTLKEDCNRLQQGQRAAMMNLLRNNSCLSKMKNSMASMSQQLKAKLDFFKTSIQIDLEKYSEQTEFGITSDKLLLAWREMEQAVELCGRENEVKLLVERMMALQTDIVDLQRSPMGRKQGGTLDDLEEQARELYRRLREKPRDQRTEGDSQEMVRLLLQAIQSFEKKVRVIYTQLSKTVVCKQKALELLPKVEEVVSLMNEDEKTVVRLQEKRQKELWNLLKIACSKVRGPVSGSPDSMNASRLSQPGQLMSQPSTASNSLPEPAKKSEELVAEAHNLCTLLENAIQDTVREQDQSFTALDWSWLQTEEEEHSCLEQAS

ZC2/TNIK = ZC2/TNIK (Homo sapiens, UniProt Q9UKE5); conditions: for inhibition at 1 µM: A-375, read-out: Percent inhibition of kinase labeling by ATP-biotin; for Percent inhibition of kinase labeling by ATP-biotin: A375 cells, 1 μM, 3 hours, ZC2/TNIK, labeling site Lys1
TAO2 = target: T3, TAO2 (Homo sapiens, UniProt Q9UL54); conditions: for inhibition at 1 µM: A-375, read-out: Percent inhibition of kinase labeling by ATP-biotin; for Percent inhibition of kinase labeling by ATP-biotin: A375 cells, 1 μM, 3 hours, TAO2, labeling site Lys2
T3 sequence (Q9UL54 1-1235): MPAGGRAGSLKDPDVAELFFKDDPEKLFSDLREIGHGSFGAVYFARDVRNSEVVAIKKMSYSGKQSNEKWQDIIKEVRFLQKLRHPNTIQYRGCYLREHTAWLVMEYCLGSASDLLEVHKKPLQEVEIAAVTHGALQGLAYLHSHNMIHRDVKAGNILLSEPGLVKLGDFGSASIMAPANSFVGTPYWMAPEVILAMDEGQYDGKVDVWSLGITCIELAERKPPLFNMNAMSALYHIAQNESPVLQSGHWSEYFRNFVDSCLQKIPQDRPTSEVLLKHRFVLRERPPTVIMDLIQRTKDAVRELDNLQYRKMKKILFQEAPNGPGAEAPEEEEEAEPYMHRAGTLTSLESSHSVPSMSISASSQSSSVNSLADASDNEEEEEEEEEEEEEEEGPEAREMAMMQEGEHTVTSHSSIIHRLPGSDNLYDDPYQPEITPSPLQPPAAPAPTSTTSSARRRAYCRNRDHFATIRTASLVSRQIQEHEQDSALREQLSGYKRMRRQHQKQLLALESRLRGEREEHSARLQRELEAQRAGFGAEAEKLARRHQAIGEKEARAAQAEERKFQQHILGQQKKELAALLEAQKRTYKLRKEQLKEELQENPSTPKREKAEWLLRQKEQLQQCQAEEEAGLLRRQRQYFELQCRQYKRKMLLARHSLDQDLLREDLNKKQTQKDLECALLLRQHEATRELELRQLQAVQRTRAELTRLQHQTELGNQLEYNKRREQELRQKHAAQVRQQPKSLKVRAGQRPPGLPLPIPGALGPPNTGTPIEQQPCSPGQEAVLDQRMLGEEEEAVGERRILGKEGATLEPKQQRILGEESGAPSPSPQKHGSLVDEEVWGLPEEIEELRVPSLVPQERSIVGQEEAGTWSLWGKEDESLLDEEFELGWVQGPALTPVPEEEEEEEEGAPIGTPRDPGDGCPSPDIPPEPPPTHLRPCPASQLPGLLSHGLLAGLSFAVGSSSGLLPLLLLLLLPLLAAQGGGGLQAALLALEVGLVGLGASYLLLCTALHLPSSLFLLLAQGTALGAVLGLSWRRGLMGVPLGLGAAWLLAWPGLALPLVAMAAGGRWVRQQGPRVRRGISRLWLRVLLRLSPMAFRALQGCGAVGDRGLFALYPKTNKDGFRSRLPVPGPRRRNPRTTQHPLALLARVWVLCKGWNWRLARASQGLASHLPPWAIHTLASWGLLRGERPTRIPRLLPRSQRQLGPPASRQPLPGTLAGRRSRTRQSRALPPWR

ROCK1, sequence (Q13464 whole entry): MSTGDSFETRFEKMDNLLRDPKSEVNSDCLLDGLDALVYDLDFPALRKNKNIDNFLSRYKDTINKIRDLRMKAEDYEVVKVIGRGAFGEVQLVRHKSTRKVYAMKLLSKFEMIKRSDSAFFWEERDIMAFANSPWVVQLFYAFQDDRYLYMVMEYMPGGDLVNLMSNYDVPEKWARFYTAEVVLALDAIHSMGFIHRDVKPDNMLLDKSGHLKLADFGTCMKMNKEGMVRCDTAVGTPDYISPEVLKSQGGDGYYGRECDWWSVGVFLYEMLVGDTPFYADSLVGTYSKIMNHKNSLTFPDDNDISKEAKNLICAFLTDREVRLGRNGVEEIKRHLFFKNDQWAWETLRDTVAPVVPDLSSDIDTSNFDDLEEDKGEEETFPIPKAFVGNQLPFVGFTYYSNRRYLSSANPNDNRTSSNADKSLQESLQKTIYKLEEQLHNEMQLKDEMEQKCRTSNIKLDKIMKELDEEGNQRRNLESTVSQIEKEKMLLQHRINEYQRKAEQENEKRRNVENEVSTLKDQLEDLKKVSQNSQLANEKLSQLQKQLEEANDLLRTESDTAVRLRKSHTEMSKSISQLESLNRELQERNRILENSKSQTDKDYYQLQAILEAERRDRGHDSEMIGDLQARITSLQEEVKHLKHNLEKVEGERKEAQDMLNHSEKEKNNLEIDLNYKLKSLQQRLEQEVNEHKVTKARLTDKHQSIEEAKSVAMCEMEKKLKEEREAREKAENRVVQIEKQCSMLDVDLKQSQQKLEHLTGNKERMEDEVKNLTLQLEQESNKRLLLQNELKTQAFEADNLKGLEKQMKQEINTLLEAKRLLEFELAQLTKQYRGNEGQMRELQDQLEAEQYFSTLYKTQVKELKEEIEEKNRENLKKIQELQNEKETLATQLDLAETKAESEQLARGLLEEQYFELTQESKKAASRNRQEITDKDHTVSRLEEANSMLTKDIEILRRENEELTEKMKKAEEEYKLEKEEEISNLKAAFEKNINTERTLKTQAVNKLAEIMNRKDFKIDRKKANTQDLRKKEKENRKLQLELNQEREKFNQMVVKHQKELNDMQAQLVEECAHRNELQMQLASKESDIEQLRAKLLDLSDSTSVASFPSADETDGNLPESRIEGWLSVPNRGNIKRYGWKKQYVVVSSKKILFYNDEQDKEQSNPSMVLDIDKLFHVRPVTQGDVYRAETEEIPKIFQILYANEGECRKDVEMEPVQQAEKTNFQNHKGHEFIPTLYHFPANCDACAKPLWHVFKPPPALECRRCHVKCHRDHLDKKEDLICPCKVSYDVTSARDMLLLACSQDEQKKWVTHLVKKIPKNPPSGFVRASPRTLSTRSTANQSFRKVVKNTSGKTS
CDK9, sequence (P50750 whole entry): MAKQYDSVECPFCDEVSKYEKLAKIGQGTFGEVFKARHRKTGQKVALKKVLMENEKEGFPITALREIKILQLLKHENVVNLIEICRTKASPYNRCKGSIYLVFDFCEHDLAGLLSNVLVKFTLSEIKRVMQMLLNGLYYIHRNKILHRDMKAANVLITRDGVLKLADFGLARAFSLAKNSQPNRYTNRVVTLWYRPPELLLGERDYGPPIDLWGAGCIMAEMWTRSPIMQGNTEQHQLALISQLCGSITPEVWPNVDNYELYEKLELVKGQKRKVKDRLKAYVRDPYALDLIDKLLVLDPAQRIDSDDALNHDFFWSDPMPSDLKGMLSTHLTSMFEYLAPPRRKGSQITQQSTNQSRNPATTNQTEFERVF
CDK9, sequence (O60563 whole entry partner): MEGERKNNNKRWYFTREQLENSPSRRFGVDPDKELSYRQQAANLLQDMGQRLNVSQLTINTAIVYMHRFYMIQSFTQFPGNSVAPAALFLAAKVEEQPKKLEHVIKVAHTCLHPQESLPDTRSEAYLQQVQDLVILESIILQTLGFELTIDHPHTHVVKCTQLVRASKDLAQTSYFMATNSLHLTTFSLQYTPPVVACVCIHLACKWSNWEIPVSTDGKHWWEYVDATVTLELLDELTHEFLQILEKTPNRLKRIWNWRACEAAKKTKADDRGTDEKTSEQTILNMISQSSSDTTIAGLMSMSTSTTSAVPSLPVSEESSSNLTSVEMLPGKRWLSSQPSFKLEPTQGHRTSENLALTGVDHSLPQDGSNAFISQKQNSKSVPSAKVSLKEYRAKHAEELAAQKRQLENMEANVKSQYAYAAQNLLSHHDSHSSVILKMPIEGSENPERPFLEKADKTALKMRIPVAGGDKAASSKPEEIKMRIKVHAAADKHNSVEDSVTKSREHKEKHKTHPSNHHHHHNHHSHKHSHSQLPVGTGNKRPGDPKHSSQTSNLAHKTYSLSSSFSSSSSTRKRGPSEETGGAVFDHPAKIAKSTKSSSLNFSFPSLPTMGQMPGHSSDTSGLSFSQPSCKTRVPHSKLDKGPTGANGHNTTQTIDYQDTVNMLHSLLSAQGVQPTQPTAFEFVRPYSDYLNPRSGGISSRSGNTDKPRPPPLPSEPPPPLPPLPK
PFTAIRE1, sequence (O94921 whole entry): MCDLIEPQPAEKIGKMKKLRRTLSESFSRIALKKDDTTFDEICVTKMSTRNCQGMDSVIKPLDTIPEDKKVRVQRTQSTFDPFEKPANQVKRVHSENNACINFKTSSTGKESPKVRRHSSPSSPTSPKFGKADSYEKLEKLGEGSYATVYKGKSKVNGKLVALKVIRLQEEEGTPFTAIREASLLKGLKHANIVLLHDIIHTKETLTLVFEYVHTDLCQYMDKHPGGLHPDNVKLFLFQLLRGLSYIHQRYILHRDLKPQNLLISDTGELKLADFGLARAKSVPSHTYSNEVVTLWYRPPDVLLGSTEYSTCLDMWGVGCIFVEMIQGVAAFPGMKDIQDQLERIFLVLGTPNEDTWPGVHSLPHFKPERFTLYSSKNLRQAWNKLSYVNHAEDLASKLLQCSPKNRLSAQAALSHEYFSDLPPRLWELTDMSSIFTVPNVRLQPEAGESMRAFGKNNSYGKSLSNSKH
ZC2/TNIK, sequence (Q9UKE5 whole entry): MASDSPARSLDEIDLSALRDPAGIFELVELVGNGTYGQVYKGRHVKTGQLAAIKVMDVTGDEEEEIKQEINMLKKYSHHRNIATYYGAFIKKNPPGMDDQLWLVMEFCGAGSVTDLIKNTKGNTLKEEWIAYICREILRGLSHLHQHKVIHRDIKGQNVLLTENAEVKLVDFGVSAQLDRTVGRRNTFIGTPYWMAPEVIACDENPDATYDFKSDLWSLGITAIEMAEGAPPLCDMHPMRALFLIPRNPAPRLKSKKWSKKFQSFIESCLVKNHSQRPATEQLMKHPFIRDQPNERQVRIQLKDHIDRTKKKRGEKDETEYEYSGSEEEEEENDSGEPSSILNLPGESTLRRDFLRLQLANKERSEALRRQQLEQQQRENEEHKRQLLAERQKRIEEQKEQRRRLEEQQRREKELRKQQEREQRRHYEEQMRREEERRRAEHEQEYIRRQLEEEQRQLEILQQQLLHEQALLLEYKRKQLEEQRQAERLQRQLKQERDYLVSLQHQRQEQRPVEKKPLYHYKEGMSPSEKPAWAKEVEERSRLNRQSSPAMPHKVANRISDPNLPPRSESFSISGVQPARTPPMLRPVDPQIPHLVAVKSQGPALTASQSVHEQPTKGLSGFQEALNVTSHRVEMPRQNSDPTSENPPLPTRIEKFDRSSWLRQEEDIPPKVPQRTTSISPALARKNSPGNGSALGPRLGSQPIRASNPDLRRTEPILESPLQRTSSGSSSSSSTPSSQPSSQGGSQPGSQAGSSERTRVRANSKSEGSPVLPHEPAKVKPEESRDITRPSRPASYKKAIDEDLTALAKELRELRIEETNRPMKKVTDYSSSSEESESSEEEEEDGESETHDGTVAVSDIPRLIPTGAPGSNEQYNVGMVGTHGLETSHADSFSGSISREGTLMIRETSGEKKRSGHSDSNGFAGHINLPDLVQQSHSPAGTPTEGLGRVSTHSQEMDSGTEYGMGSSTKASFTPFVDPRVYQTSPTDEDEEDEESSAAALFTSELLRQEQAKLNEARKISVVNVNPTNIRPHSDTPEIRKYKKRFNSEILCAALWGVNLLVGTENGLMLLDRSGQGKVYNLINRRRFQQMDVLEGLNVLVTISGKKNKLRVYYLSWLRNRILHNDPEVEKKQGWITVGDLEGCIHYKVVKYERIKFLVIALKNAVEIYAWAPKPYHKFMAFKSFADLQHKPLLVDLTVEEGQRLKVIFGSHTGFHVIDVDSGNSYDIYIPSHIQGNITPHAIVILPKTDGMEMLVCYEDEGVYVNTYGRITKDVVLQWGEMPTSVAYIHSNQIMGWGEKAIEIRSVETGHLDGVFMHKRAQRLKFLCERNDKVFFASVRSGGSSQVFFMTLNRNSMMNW
MARK2, sequence (Q7KZI7 whole entry): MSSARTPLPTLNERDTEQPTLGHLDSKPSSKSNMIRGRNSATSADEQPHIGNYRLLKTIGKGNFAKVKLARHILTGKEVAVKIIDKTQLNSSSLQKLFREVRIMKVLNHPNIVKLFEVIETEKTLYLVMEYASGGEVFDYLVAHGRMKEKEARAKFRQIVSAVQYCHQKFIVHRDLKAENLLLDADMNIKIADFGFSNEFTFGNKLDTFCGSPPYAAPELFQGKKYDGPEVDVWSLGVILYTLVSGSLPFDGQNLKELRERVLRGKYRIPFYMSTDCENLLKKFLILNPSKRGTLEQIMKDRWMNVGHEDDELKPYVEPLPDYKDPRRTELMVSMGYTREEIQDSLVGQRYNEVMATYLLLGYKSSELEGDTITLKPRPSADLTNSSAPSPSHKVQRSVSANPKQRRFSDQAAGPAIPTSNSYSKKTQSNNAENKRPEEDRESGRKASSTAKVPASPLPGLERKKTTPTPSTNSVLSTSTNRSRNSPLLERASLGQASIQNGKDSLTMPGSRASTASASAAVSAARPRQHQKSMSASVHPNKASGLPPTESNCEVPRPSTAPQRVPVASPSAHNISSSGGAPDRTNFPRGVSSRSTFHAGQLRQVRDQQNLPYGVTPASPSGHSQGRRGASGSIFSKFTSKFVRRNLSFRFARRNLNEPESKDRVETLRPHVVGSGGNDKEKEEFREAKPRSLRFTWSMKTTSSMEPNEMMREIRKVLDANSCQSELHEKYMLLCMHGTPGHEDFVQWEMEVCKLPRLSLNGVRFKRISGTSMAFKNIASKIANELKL

Row | inhibition at 1 µM (GSK3B) [%] | inhibition at 1 µM (PFTAIRE1) [%] | inhibition at 1 µM (CDK9) [%] | inhibition at 1 µM (ROCK1) [%] | inhibition at 1 µM (ITPK1) [%] | inhibition at 1 µM (MARK2) [%] | inhibition at 1 µM (IKKb) [%] | inhibition at 1 µM (ZC2/TNIK) [%] | inhibition at 1 µM (TAO2) [%] | SMILES | Percent inhibition of kinase labeling by ATP-biotin (JNK1,JNK2,JNK3) [%] | Percent inhibition of kinase labeling by ATP-biotin (GSK3B) [%] | Percent inhibition of kinase labeling by ATP-biotin (PFTAIRE1) [%] | Percent inhibition of kinase labeling by ATP-biotin (CDK9) [%] | Percent inhibition of kinase labeling by ATP-biotin (ROCK1) [%] | Percent inhibition of kinase labeling by ATP-biotin (ITPK1) [%] | Percent inhibition of kinase labeling by ATP-biotin (MARK2) [%] | Percent inhibition of kinase labeling by ATP-biotin (IKKb) [%] | Percent inhibition of kinase labeling by ATP-biotin (ZC2/TNIK) [%] | Percent inhibition of kinase labeling by ATP-biotin (TAO2) [%]
1 | 67.1 | 12.8 | -23.4 | -8.2 | -0.7 | 20.8 | -11.2 | > 80 | 42.6 | CN(C)C/C=C/C(=O)Nc1cccc(C(=O)Nc2ccc(Nc3nccc(-c4c(-c5ccccc5)nn5ccccc45)n3)cc2)c1 [JNK-IN-11] | 99.8 | – | – | – | – | – | – | – | – | –
2 | – | – | – | – | – | – | – | – | – | CCC(=O)Nc1cccc(C(=O)Nc2ccc(Nc3nccc(-c4cccnc4)n3)cc2)c1 [JNK-IN-6] | 27.3 | 23.6 | −6 | 7.6 | 24.4 | 27 | 13.4 | 33.4 | −15.9 | 22.5
3 | -8.5 | 38.1 | -34.1 | 10 | 24.6 | 9.6 | -6.5 | 9.9 | -21.6 | Cc1cc(NC(=O)c2cccc(NC(=O)/C=C/CN(C)C)c2)ccc1Nc1nccc(-c2cccnc2)n1 [JNK-IN-8] | 98.7 | – | – | – | – | – | – | – | – | –
4 | – | – | – | – | – | – | – | – | – | CN(C)C/C=C/C(=O)Nc1cccc(C(=O)Nc2ccc(Nc3nccc(/C(C#N)=C4\Nc5ccccc5S4)n3)cc2)c1 [JNK-IN-12] | 98.6 | −29.6 | 25.7 | −35.3 | −97 | 8.6 | −41.1 | −97.5 | −8.9 | −13

Row | SMILES | inhibition at 1 µM (GSK3B) [%] | inhibition at 1 µM (PFTAIRE1) [%] | inhibition at 1 µM (CDK9) [%] | inhibition at 1 µM (ROCK1) [%] | inhibition at 1 µM (ITPK1) [%] | inhibition at 1 µM (MARK2) [%] | inhibition at 1 µM (IKKb) [%] | inhibition at 1 µM (ZC2/TNIK) [%] | inhibition at 1 µM (TAO2) [%] | Percent inhibition of kinase labeling by ATP-biotin (JNK1,JNK2,JNK3) [%] | Percent inhibition of kinase labeling by ATP-biotin (GSK3B) [%] | Percent inhibition of kinase labeling by ATP-biotin (PFTAIRE1) [%] | Percent inhibition of kinase labeling by ATP-biotin (CDK9) [%] | Percent inhibition of kinase labeling by ATP-biotin (ROCK1) [%] | Percent inhibition of kinase labeling by ATP-biotin (ITPK1) [%] | Percent inhibition of kinase labeling by ATP-biotin (MARK2) [%] | Percent inhibition of kinase labeling by ATP-biotin (IKKb) [%] | Percent inhibition of kinase labeling by ATP-biotin (ZC2/TNIK) [%] | Percent inhibition of kinase labeling by ATP-biotin (TAO2) [%]
5 | CN(C)C/C=C/C(=O)Nc1cccc(C(=O)Nc2ccc(Nc3nccc(-c4cccnc4)n3)cc2)c1 [JNK-IN-7] | 12.3 | 75.3 | 16.6 | -11.9 | -0.2 | 23.6 | -10.1 | 20.9 | -3.7 | 99.7 | – | – | – | – | – | – | – | – | –
